Values joined by “and” are separate entries in the source; they are usually repeats but may differ in a detail not shown here. Equal values may be shown once. Read-outs that look alike come from different tables or passages of the source. Blank lines part the entries; values can stand above or below the compound they belong to.
Experiments:
[1] = background section; cited from earlier work
[2] = Solubility comparison of RAD51 inhibitors; type: physicochemical; conditions: for appearance of the 1 mM solution in H2O/DMSO: 1 mM in H2O/DMSO
Procedure: A comparison of the solubility of selected compounds of the present invention with known RAD51 inhibitors was carried out.
Aqueous samples of the mesylate salt were readily prepared and were suitable for testing in inhibition assays. Exemplary solutions were prepared as follows:
soluble in water−1.0 mg JKYN-1-mes+75.9 μl of water=20 mM (13.2 mg/ml)
Exemplary solutions were prepared as follows:
IBR2 was soluble in DMSO to at least 166.8 mM (66.7 mg/ml). Exemplary solutions were prepared as follows:
IBR120 is soluble in DMSO to at least 20 mM (7.77 mg/ml).

[3] = system: most tested cancer cell lines; conditions: cited from earlier work
MDA-MB-231 = experiment: Proliferation assay, MDA-MB-231; type: cell-based; conditions: Homo sapiens; MDA-MB-231, single agent
Procedure: (§1) Proliferation assays: Cells are maintained in minimum essential medium alpha plus 10% fetal bovine serum and penicillin (50 units/mL)/streptomycin (50 mg/L) (growth medium). Cultures are incubated in a humidified atmosphere of 5% CO2 at 37° C. Rapidly proliferating cells are used to establish cultures of experimental cells, which are allowed to adhere overnight in 96-well plates or 25-cm^2 flasks prior to manipulation.
(§2) Exposure to chemotherapy drugs and combinations thereof: Cells are grown in 96-well plates and treated with simultaneous exposure to a single drug or a combination of two drugs at the concentrations indicated. The relative cell density is determined after 4 days by viability staining (alamarBlue© or neutral red).
(§3) The relative density of cells treated with two agents is normalized to the density observed for a respectively treated “second agent” control. The concentration of drug that inhibits proliferation by 50% (IC50 value) is interpolated from plotted data. The change in the IC50 value of a chemotherapy drug caused by the presence of the second agent is determined as a percent of the IC50 of the first drug alone. […] This methodology, previously reported (Ferguson et al., 2009; Blake et al., 2017; Ferguson et al., 2018), provides a quantitative, concentration-dependent representation of the magnitude of the drug interaction.

CCD841 = experiment: Proliferation assay, normal cell line surrogate CCD841; type: cell-based, human; conditions: CCD841, single agent, 4 days
Procedure: as §1, §2
(§4) The relative density of cells treated with two agents is normalized to the density observed for a respectively treated “second agent” control. The concentration of drug that inhibits proliferation by 50% (IC50 value) is interpolated from plotted data. The change in the IC50 value of a chemotherapy drug caused by the presence of the second agent is determined as a percent of the IC50 of the first drug alone. […] This methodology, previously reported (Ferguson et al., 2009; Blake et al., 2017; Ferguson et al., 2018), provides a quantitative, concentration-dependent representation of the magnitude of the drug interaction. […]

NSCLC cell line A549b = experiment: Proliferation assay, A549b; type: cell-based; conditions: for inhibition of proliferation compared with IBR120: range of concentrations
Procedure: as §1, §2
(§5) The relative density of cells treated with two agents is normalized to the density observed for a respectively treated “second agent” control. The concentration of drug that inhibits proliferation by 50% (IC50 value) is interpolated from plotted data. The change in the IC50 value of a chemotherapy drug caused by the presence of the second agent is determined as a percent of the IC50 of the first drug alone. Enhancement of cytotoxicity is indicated by a decrease in the IC50 value. This methodology, previously reported (Ferguson et al., 2009; Blake et al., 2017; Ferguson et al., 2018), provides a quantitative, concentration-dependent representation of the magnitude of the drug interaction.

[4] = system: N87 stomach carcinoma cell line; experiment: Proliferation assay, N87; type: cell-based
Procedure: as §1, §2, §5

NSCLC cell line H1650 = experiment: Proliferation assay, NSCLC cell line H1650; type: cell-based
Procedure: as §1, §2, §5

normal cells = experiment: Toxicity on normal cells (summary of the normal cell line surrogates); type: cell-based, human; conditions: normal cell surrogates HEK293, CCD841, HK-2, read-out: toxicity (IC50) on normal cells, approximate
Procedure: as §1, §2, §5
FIG. 23 graphically depicts the toxicity effect on normal (not fully tumorigenic) cell line surrogates resulting from exposure to JKYN-1 (base). The cell line surrogates include: HEK293 (human embryonic kidney transformed with adenovirus 5 DNA); CCD841 (human embryonic colonic epithelial, untransformed); and HK-2 (human kidney proximal tubule, papilloma).

HEK293 = experiment: Proliferation assay, normal cell line surrogate HEK293; type: cell-based, human; conditions: HEK293, single agent, 4 days
Procedure: as §1, §2, §4

[5] = system: prostate carcinoma cell line LNCaP; experiment: Proliferation assay, LNCaP; type: cell-based
Procedure: as §1, §2, §5

[6] = system: MCF-7 breast carcinoma cell line; experiment: Proliferation assay, MCF-7; type: cell-based
Procedure: as §1, §2, §5

[7] = system: pancreatic cancer cell line (PANC-1); experiment: Proliferation assay, PANC-1; type: cell-based; conditions: for inhibition of proliferation compared with IBR120: range of concentrations
Procedure: as §1, §2, §5

[8] = system: DU145 prostate carcinoma cell line; experiment: Proliferation assay, DU145; type: cell-based
Procedure: as §1, §2, §3

HK-2 = experiment: Proliferation assay, normal cell line surrogate HK-2; type: cell-based, human; conditions: HK-2, single agent, 4 days
Procedure: as §1, §2, §4

- appearance of the 1 mM solution in H2O/DMSO [2]: slightly cloudy
- solubility in DMSO [2]: at least 166.8 mM and ≥ 66.7 mg/ml
- upper limit of solubility in H2O/DMSO ([2]; H2O/DMSO): ~1000 µM
- appearance of the 1 mM H2O/DMSO solution diluted 1:10 or more in water [2]: clear
- solubility in water ([2]; water): insoluble in water
Compound: O=S(=O)(Cc1ccccc1)N1C=Cc2ccccc2C1c1c[nH]c2ccccc12 (centres unmarked) [IBR2]
- aqueous solubility (background statement) [1]: low aqueous solubility
- IC50 [3]: 12 to 20 µM

- appearance of the 1 mM solution in H2O/DMSO [2]: a little bit cloudy
- solution of 25 mg/ml in 100% DMSO ([2]; 25 mg/ml, 100% DMSO): dissolves well
- solubility in DMSO [2]: at least 20 mM and ≥ 7.77 mg/ml
- appearance of the 1 mM H2O/DMSO solution diluted 1:10 or more in water [2]: clear
- solubility in water ([2]; water): insoluble in water
Compound: O=S(=O)(Cc1ccccc1)N1Cc2ccccc2[C@@H]1c1c[nH]c2ccccc12 [IBR120]
- aqueous solubility (background statement) [1]: low aqueous solubility

- IC50 (MDA-MB-231): 5.66 ± 0.36 µM
- IC50 (NSCLC cell line A549b; single agent): 3.96 ± 0.44 µM
- decrease of the IC50 value of regorafenib ([4]; N87, combination with regorafenib): up to 54%
- IC50 ([4]; N87, single agent): 2.21 ± 1.13 µM
- solubility in water [2]: highly soluble in water
- solubility ([2]; water, thermodynamic from solid): ≥ 13200 µg/mL and ≥ 20000 µM
- decrease of the IC50 value of osimertinib (NSCLC cell line H1650; H1650, combination with osimertinib): up to 75%
- IC50 (NSCLC cell line H1650; H1650, single agent, Mesylate Salt, read-out: IC50): ≥ 4 µM
- IC50 (NSCLC cell line H1650; Homo sapiens, NCI-H1650, H1650, 6 μM osimertinib, read-out: IC50 of JKYN-1-mesylate in the presence of osimertinib): ~2 µM
- IC50 (NSCLC cell line H1650; Homo sapiens, NCI-H1650, H1650, single agent, read-out: IC50): 3.95 µM
- IC50 ([5]; Homo sapiens, single agent): 3.36 ± 0.37 µM
- decrease of the IC50 value of enzalutamide ([5]; combination with enzalutamide): up to 30%
- IC50 ([6]; Homo sapiens, MCF7, MCF-7, about 5 μM (or more) 4-OH-tamoxifen, read-out: IC50 of JKYN-1-mesylate in the presence of 4-OH-tamoxifen): ≤ 1.5 µM
- IC50 ([6]; Homo sapiens, MCF7, MCF-7, single agent, read-out: IC50): 4.36 ± 0.42 µM
- decrease of the IC50 value of 4-OH-tamoxifen ([6]; MCF-7, combination with 4-OH-tamoxifen): up to 80%
- IC50 ([6]; MCF-7, single agent, Mesylate Salt, read-out: IC50): 4 to 5 µM
- IC50 ([7]; Homo sapiens, PANC-1, single agent): 4.69 ± 1.14 µM
Compound: CN1CCN(c2ccc(-c3ccc4c(c3)[C@H](c3c[nH]c5ccccc35)N(S(=O)(=O)Cc3ccccc3)C4)cc2)CC1.CS(=O)(=O)O [JKYN-1-mesylate, (R)-3-(2-(Benzylsulfonyl)-6-(4-(4-methylpiperazin-1-yl)phenyl)isoindolin-1-yl)-1H-indole, Mesylate Salt]
- IC50 (CCD841; Mesylate Salt): 3.68 µM
- effect on inhibition by regorafenib (NSCLC cell line A549b; combination with regorafenib): potentiates regorafenib
- inhibition of proliferation compared with IBR120 (NSCLC cell line A549b; single agent): superior activity
- combination effect with regorafenib ([4]; N87): synergistic effect
- combination effect with osimertinib (NSCLC cell line H1650; H1650, range of concentrations): synergistic effect
- IC50 (normal cells; Homo sapiens): 3 to 4 µM
- IC50 (normal cells; Mesylate Salt): 3 to 4 µM
- IC50 (HEK293; Mesylate Salt): 2.89 µM
- combination effect with enzalutamide ([5]; range of concentrations): synergistic effect
- combination effect with 4-OH-tamoxifen ([6]; MCF-7, range of concentrations): synergistic effect
- combination effect with afatinib ([7]; PANC-1, combination with afatinib): positive (synergistic) effect
- inhibition of proliferation compared with IBR120 ([7]; PANC-1, single agent): superior activity
- effect on inhibition by enzalutamide ([8]; DU145, combination with enzalutamide): enhanced enzalutamide toxicity
- combination effect with enzalutamide ([8]; DU145, range of concentrations): synergistic effect
- IC50 (HK-2; Mesylate Salt): 3.42 µM

- solubility in water at 10 mg/ml [2]: not very soluble in water
- appearance of the 1 mM solution in H2O/DMSO [2]: less cloudy than 1 mM IBR120
Compound: CN1CCN(c2ccc(-c3ccc4c(c3)[C@H](c3c[nH]c5ccccc35)N(S(=O)(=O)Cc3ccccc3)C4)cc2)CC1 [Compound 1, (R)-3-(2-(Benzylsulfonyl)-6-(4-(4-methylpiperazin-1-yl)phenyl)isoindolin-1-yl)-1H-indole]
- IC50 (CCD841; Homo sapiens, CCD-841, 96 h): 5.71 µM
- inhibition of proliferation compared with IBR120 (NSCLC cell line A549b; single agent): superior activity
- IC50 (normal cells; listed as JKYN-1): 4 to 6 µM
- IC50 (HEK293; Homo sapiens, HEK293, 96 h): 4.16 µM
- inhibition of proliferation compared with IBR120 ([7]; PANC-1, single agent): superior activity
- IC50 (HK-2; Homo sapiens, HK-2, 96 h): 3.92 µM
